{
  "source": "patent US20080289052A1",
  "about": "“Method of Constructing Animal Having Cancer Cells Transplanted Thereinto” (priority 2004, published 2008)",
  "system": "cancer cells A-549",
  "experiment": "Anti-tumor agent test in nude mice transplanted subcutaneously with an A-549 cancer cells sheet",
  "type": "in vivo",
  "description": "A cell culture base was coated with the temperature-responsive polymer poly(N-isopropylacrylamide) in an amount of 1.9 μg/cm^2 and the cancer cells A-549 was cultivated (2×10^4 cells were seeded; 37° C. in 5% CO2). Three days later, the cancer cells (A-549) on the culture base were confirmed to have become confluent; thereafter, a poly(vinylidene difluoride) [PVDF] membrane not coated with a fibrin gel was gently placed over the cultured cell sheet so that the cultured cancer cells adhered to it; then, the cell culture base was cooled at 20° C. for 60 minutes. After the cooling, a sheet of cancer cells (7 mm×17 mm×2 mm; 5×10^5 cells) was detached together with PVDF membrane. The back of each of 10 nude mice was incised linearly beneath the skin and the subcutaneous tissue was detached with forceps to create a pocket, into which the above-described cancer cells sheet was inserted. After the inserting, the incised part was sutured to complete the transplantation. The dimensions of the tumor that developed after the transplantation were measured over the skin with a micrometer and the volume of the tumor was calculated assuming that it was an ellipsoid. The volume of the tumor was also calculated, this time on the assumption that it was a cylindroid (volume of cylindroid=n/4×major axis of the tumor×minor axis of the tumor×thickness of the tumor). Four weeks after the transplantation, the mean volume of ellipsoid was 578.7+322.8 mm^3, the mean volume of cylindroid was 1258.7+897.9 mm^3, and the mean tumor weight was 785.4±394 mg. The decrease in the tumor volume that occurred immediately after the transplantation as shown in FIG. 1 (tumor assumed as an ellipsoid) and FIG. 2 (as a cylindroid) was absent and the tumor grew bigger as more days elapsed after the transplantation.\nThe cancer cells transplanted animals prepared in Example 2 were administered a total of four times on a once-a-week basis with 3 mg of 5-fluorouracil (5-FU), a known anti-tumor agent, through the tail vein as it was dissolved in 0.3 ml of 1% ethyl alcohol containing physiological saline. Four weeks after the administration, the mean volume of ellipsoid was 279.6±127.1 mm^3, the mean volume of cylindroid was 619.3±262.9 mm^3, and the mean tumor weight was 369.3±123 mg. As it turned out, the cancer cells transplanted animals described in the present invention got the volume and weight of the tumor to be reduced by receiving the anti-tumor agent. Obviously, the cancer cells transplanted animals of the present invention are useful in selecting an effective anti-tumor agent.",
  "key": {"[1]": {"settings": "A-549 cell sheet transplanted nude mice of Example 2, 3 mg through the tail vein once a week, four times, four weeks after the administration"}},
  "data": [
    {"smiles": "O=c1[nH]cc(F)c(=O)[nH]1", "note": "[5-fluorouracil]", "values": [
      {"measurement": "mean tumor weight", "setting": "[1]", "value": "369.3 ± 123", "unit": "mg"},
      {"measurement": "mean volume of cylindroid (tumor volume)", "setting": "[1]", "value": "619.3±262.9", "unit": "mm^3"},
      {"measurement": "mean volume of ellipsoid (tumor volume)", "setting": "[1]", "value": "279.6±127.1", "unit": "mm^3"},
      {"measurement": "volume and weight of the tumor (effect of receiving the anti-tumor agent)", "setting": "A-549 cell sheet transplanted nude mice, compared with untreated animals of Example 2", "value": "reduced"}
    ]}
  ]
}
